Reference: patent publication US10421964B2, “UNA oligomers and compositions for treating amyloidosis” (Arcturus Therapeutics, Inc., priority 2015, dated 2019)
[UNA] = unlocked nucleic acid; m = 2'-O-methyl; r = 2'-OH (RNA)

Tests used:
[1] = lipid; cited from earlier work
[2] = test system: V30M gene reporter variant (nucleotide sequence 264 to 304 of human TTR containing the point mutation at position 284); experiment: PSICHECK reporter assay against V30M gene reporter variant; type: cell-based; conditions: for effectiveness against V30M compared with V30V: V30V and V30M gene reporter variants; for selectivity against V30M over V30V: IC50 against V30V over IC50 against V30M; for IC50: V30M gene reporter variant
Method: (§1) Conventional siRNAs that are complementary to the […] mRNA were tiled around position 284. […] Positions 5, 9, 14 and 15 appear to be more accessible to silencing than other positions. […] Four conventional siRNA variations, namely V30M-P5, V30M-P9, V30M-P14, and V30M-P15, were prepared.
(§2) Thus, the selectivity of the conventional siRNAs against V30M over V30V was no more than 5.6.

[3] = test system: V30V gene reporter variant (nucleotide sequence 264 to 304 of human TTR without the point mutation at position 284); experiment: PSICHECK reporter assay against V30V gene reporter variant; type: cell-based
Method: as §1, §2

Transthyretin TTR mRNA = experiment: Knockdown of TTR protein in plasma of Cynomolgus monkeys after single IV dose of liposomal UNA oligomer (LC-MS/MS SRM); type: in vivo, Cynomolgus monkeys (Macaca fascicularis)
Method: A single-dose, pharmacokinetic and pharmacodynamic study of liposomally formulated UNA Oligomers targeting transthyretin (TTR) mRNA following intravenous infusion in Cynomolgus monkeys was performed.
Cynomolgus monkeys (Macaca fascicularis) were selected for this study because the TTR mRNA of Cynomolgus monkeys is homologous to human TTR mRNA, making them a good model for screening the potency of UNA oligomers targeting to TTR mRNA.
In this study, the knockdown of Transthyretin protein was evaluated as a result of treatment with UNA oligomers targeting Transthyretin TTR mRNA, based on SEQ ID NOs:46/86, 59/99, and 60/100, delivered in a liposomal formulation to male Cynomolgus monkeys. Measurements were made following a single intravenous (IV) dose administration. TTR protein concentration in plasma samples was assessed by LC-MS/MS at various time points.
Animals in Groups 1 through 8 were administered the test articles on Day 1 at 0.3 mg/kg, dose volume 6.25 mL/kg, concentration 0.048 mg/mL. Doses were administered as a 15-minute intravenous (IV) infusion, +1 minute, using a pump and disposable syringe.
For each animal, infusion start and end times were recorded; and subsequent sample collection target times were determined based on infusion end time (t=0). All blood specimens, approximately 1 mL, were collected by venipuncture from a peripheral vein from restrained, conscious animals.
The Monkey TTR SRM assay was used, which is a high throughput absolute protein quantitation assay using Selected Reaction Monitoring (SRM) technology platform. In a single SRM assay, the panel can multiplex up to 200 proteins. The assay was performed on a targeted absolute protein quantitation platform, where the key technology was SRM, sometimes also referred to as Multiple Reaction Monitoring (MRM). In a triple-quadrupole (QQQ) mass spectrometer, SRM/MRM is a tandem selection process where selecting peptides by precursor m/z is followed by selecting fragmentations (transitions) of the targeted peptide.

Compound	silencing V30M TTR [2]	activity compared to the conventional siRNA, each targeted to V30M [2]	selectivity against V30M over V30V compared to the conventional siRNA [2]	effectiveness against V30M compared with V30V [2]	further results
CCCCCC/C=C\COC(=O)CCCCCCCN(CCCCCCCC(=O)OC/C=C\CCCCCC)C(=O)CSCCCN(CC)CC [ATX- 008]	–	–	–	–	pKa [1]: 10
CCCCCC/C=C\COC(=O)CCCCCCCN(CCCCCCCC(=O)OC/C=C\CCCCCC)C(=O)SCCCN(CC)CC [ATX- 012]	–	–	–	–	pKa [1]: 10
ĞCCAUGCAUGUGUUCAGAAŨmU / UUCUGAACACAUGCAUĞGCŨmU (chain 1 GCCAUGCAUGUGUUCAGAAUU; chain 2 UUCUGAACACAUGCAUGGCUU; siRNA; chain 1: sugars from the 5' end [UNA]1 r18 [UNA]1 m1, backbone not given here; chain 2: sugars from the 5' end r16 [UNA]1 r2 [UNA]1 m1, backbone not given here) [P16U17]	effective in silencing V30M TTR	–	–	–	–
ĞCCAUGCAUGUGUUCAGAAŨmU / UUCUGAACACAUGCAŨGGCŨmU (chain 1 GCCAUGCAUGUGUUCAGAAUU; chain 2 UUCUGAACACAUGCAUGGCUU; siRNA; chain 1: sugars from the 5' end [UNA]1 r18 [UNA]1 m1, backbone not given here; chain 2: sugars from the 5' end r15 [UNA]1 r3 [UNA]1 m1, backbone not given here) [P16U16]	effective in silencing V30M TTR	superior to the activity of the conventional siRNA V30M-P16	substantially greater than for the conventional siRNA V30M-P16	more effective against V30M than V30V	–
ĞCCAUGCAUGUGUUCAGAAŨmU / UUCUGAACACAUGCÃUGGCŨmU (chain 1 GCCAUGCAUGUGUUCAGAAUU; chain 2 UUCUGAACACAUGCAUGGCUU; siRNA; chain 1: sugars from the 5' end [UNA]1 r18 [UNA]1 m1, backbone not given here; chain 2: sugars from the 5' end r14 [UNA]1 r4 [UNA]1 m1, backbone not given here) [P16U15]	effective in silencing V30M TTR	superior to the activity of the conventional siRNA V30M-P16	substantially greater than for the conventional siRNA V30M-P16	more effective against V30M than V30V	–
ĞCCAUGCAUGUGUUCAGAAŨmU / UUCUGAÃCACAUGCAUGGCŨmU (chain 1 GCCAUGCAUGUGUUCAGAAUU; chain 2 UUCUGAACACAUGCAUGGCUU; siRNA; chain 1: sugars from the 5' end [UNA]1 r18 [UNA]1 m1, backbone not given here; chain 2: sugars from the 5' end r6 [UNA]1 r12 [UNA]1 m1, backbone not given here) [P16U7]	effective in silencing V30M TTR	superior to the activity of the conventional siRNA V30M-P16	substantially greater than for the conventional siRNA V30M-P16	more effective against V30M than V30V	–
ĞCCAUGCAUGUGUUCAGAAŨmU / UUCUGÃACACAUGCAUGGCŨmU (chain 1 GCCAUGCAUGUGUUCAGAAUU; chain 2 UUCUGAACACAUGCAUGGCUU; siRNA; chain 1: sugars from the 5' end [UNA]1 r18 [UNA]1 m1, backbone not given here; chain 2: sugars from the 5' end r5 [UNA]1 r13 [UNA]1 m1, backbone not given here) [P16U6]	effective in silencing V30M TTR	superior to the activity of the conventional siRNA V30M-P16	substantially greater than for the conventional siRNA V30M-P16	more effective against V30M than V30V	superiority of selectivity over the selectivity of 5.6 of the conventional siRNA [2]: 4 fold; selectivity against V30M over V30V [2]: 23; IC50 [2]: 0.0924 nM; IC50 [3]: 2.12 nM
ĞGCCAUGCAUGUGUUCAGAŨmU / UCUGAACACAUGCAUĞGCCŨmU (chain 1 GGCCAUGCAUGUGUUCAGAUU; chain 2 UCUGAACACAUGCAUGGCCUU; siRNA; chain 1: sugars from the 5' end [UNA]1 r18 [UNA]1 m1, backbone not given here; chain 2: sugars from the 5' end r15 [UNA]1 r3 [UNA]1 m1, backbone not given here) [P15U16]	effective in silencing V30M TTR	–	substantially greater than for the conventional siRNA V30M-P15	more effective against V30M than V30V	–
ĞGCCAUGCAUGUGUUCAGAŨmU / UCUGAACACAUGCAŨGGCCŨmU (chain 1 GGCCAUGCAUGUGUUCAGAUU; chain 2 UCUGAACACAUGCAUGGCCUU; siRNA; chain 1: sugars from the 5' end [UNA]1 r18 [UNA]1 m1, backbone not given here; chain 2: sugars from the 5' end r14 [UNA]1 r4 [UNA]1 m1, backbone not given here) [P15U15]	effective in silencing V30M TTR	–	substantially greater than for the conventional siRNA V30M-P15	more effective against V30M than V30V	–
ĞGCCAUGCAUGUGUUCAGAŨmU / UCUGAACACAUGCÃUGGCCŨmU (chain 1 GGCCAUGCAUGUGUUCAGAUU; chain 2 UCUGAACACAUGCAUGGCCUU; siRNA; chain 1: sugars from the 5' end [UNA]1 r18 [UNA]1 m1, backbone not given here; chain 2: sugars from the 5' end r13 [UNA]1 r5 [UNA]1 m1, backbone not given here) [P15U14]	effective in silencing V30M TTR	–	–	–	–
ĞGCCAUGCAUGUGUUCAGAŨmU / UCUGAAĈACAUGCAUGGCCŨmU (chain 1 GGCCAUGCAUGUGUUCAGAUU; chain 2 UCUGAACACAUGCAUGGCCUU; siRNA; chain 1: sugars from the 5' end [UNA]1 r18 [UNA]1 m1, backbone not given here; chain 2: sugars from the 5' end r6 [UNA]1 r12 [UNA]1 m1, backbone not given here) [P15U7]	effective in silencing V30M TTR	–	substantially greater than for the conventional siRNA V30M-P15	more effective against V30M than V30V	–
ĞGCCAUGCAUGUGUUCAGAŨmU / UCUGAÃCACAUGCAUGGCCŨmU (chain 1 GGCCAUGCAUGUGUUCAGAUU; chain 2 UCUGAACACAUGCAUGGCCUU; siRNA; chain 1: sugars from the 5' end [UNA]1 r18 [UNA]1 m1, backbone not given here; chain 2: sugars from the 5' end r5 [UNA]1 r13 [UNA]1 m1, backbone not given here) [P15U6]	effective in silencing V30M TTR	superior to the activity of the conventional siRNA V30M-P15	substantially greater than for the conventional siRNA V30M-P15	more effective against V30M than V30V	superiority of selectivity over the selectivity of 5.6 of the conventional siRNA [2]: 4 fold; selectivity against V30M over V30V [2]: 24; IC50 [2]: 0.0376 nM; IC50 [3]: 0.92 nM
ŨAACCAAGAGUAUUCCAUUŨmU / AAUGGAAUACUCUUGGUUAŨmU (chain 1 UAACCAAGAGUAUUCCAUUUU; chain 2 AAUGGAAUACUCUUGGUUAUU; siRNA; chain 1: sugars from the 5' end [UNA]1 r18 [UNA]1 m1, backbone not given here; chain 2: sugars from the 5' end r19 [UNA]1 m1, backbone not given here) [SEQ ID NO:60/100]	–	–	–	–	knockdown of TTR (Transthyretin TTR mRNA; at 20 days, single IV dose 0.3 mg/kg, primates): over 91%; knockdown of TTR (Transthyretin TTR mRNA; continuous duration of more than 20 days, single IV dose 0.3 mg/kg, primates): more than 70%; TTR protein levels (Transthyretin TTR mRNA; continuous duration of more than one month (30 days), single injection, primates): below 50%; knockdown of Transthyretin protein in vivo (Transthyretin TTR mRNA; liposomal formulation, male Cynomolgus monkeys, single IV dose 0.3 mg/kg, plasma): achieved
